Reference: publication PMC7179419 (Molecules, 2020)
Read-outs that look alike come from different tables or passages of the source.

What was measured:
[1] = system: human breast adenocarcinoma (MCF-7); test: cells; assay type: cell-based; details: for IC50: read-out: MCF-7 IC50; for SI (MCF-7): SI = IC50 BALB/3T3 / IC50 MCF-7
Description: (§1) For a more accurate evaluation of cytotoxic activity, the effect on normal murine embryonic fibroblast cell line (BALB/3T3) was also tested according to the previously published procedure. Detailed information concerning antiproliferation assay can be found in Supplementary Materials. […]
(§2) The antiproliferative activity
(§3) Four human cancer cell lines and one murine normal cell line were used to evaluate […]
(§4) (A549), human breast adenocarcinoma (MCF-7), human colon adenocarcinoma cell lines sensitive and resistant to doxorubicin (LoVo), respectively, and normal murine embryonic fibroblast cell line (BALB/3T3). The BALB/3T3 cell line was purchased from the American Type Culture Collection (ATCC, Manassas, VA, USA), A549 and MCF-7 cell lines—from European Collection of Authenticated Cell Cultures (Salisbury, UK), LoVo cell line was purchased from the ATCC (ATCC, Manassas, VA, USA). All the cell lines are maintained in the Institute of Immunology and Experimental Therapy (IIET), Wroclaw, Poland. Human lung adenocarcinoma cell line was cultured in mixture of OptiMEM and RPMI 1640 (1:1) medium (IIET, Wroclaw, Poland), supplemented with 5% fetal bovine serum (GE Healthcare, Logan, UT, USA) and 2 mM L-glutamine (Sigma-Aldrich, Merck KGaA, Saint Louis, MO, USA). Human breast adenocarcinoma cell line was cultured in mixture of Eagle medium (IIET, Wroclaw, Poland), supplemented with 10% fetal bovine serum, 2 mM L-glutamine, 8 μg/mL insulin and 1% amino-acids (Sigma-Aldrich, Merck KGaA, Saint Louis, MO, USA).
(§5) Human colon adenocarcinoma cell lines were cultured in mixture of OptiMEM and RPMI 1640 (1:1) medium (IIET, Wroclaw, Poland), supplemented with 5% fetal bovine serum (GE Healthcare, Logan UT, USA), 2 mM L-glutamine, 1 mM sodium pyruvate (Sigma-Aldrich, Merck KGaA, Saint Louis, MO, USA). Murine embryonic fibroblast cells were cultured in […]
(§6) Dulbecco medium (Life Technologies Limited, Paisley, UK), supplemented with 10% fetal bovine serum (GE Healthcare, Logan, UT, USA) and 2 mM glutamine (Sigma-Aldrich, Merck KGaA, Saint Louis, MO, USA). All culture media contained antibiotics: 100 U/mL penicillin and 100 μg/mL streptomycin (Polfa-Tarchomin, Warsaw, Poland). All cell lines were cultured during entire experiment in humid atmosphere at 37 °C and 5% CO2. Cells were tested for mycoplasma contamination by mycoplasma detection kit for conventional […]
(§7) The procedure is repeated every year or in the case of less frequently used lines:
(§8) The Antiproliferative Assays In Vitro
(§9) Twenty-four hours before adding the tested compounds, all cell lines were seeded in 384-well plates (Sarstedt, Nümbrecht, Germany) in appropriate media with 1x103 or 1,5x103

[2] = system: human colon adenocarcinoma cell line (LoVo); test: cells; assay type: cell-based; details: for IC50: LoVo, 72 h, read-out: LoVo IC50; for SI (LoVo): SI = IC50 BALB/3T3 / IC50 LoVo
Description: as §1, §2, §3, §4, §5, §6, §7, §8, §9

[3] = system: human lung adenocarcinoma (A549); test: cells; assay type: cell-based; details: for IC50: A549, 72 h, read-out: A549 IC50; for SI (A549): SI = IC50 BALB/3T3 / IC50 A549
Description: as §1, §2, §3, §4, §5, §6, §7, §8, §9

[4] = system: normal murine embryonic fibroblast cell line (BALB/3T3); test: Antiproliferative assay in vitro (SRB, 72 h), BALB/3T3 normal cells; assay type: cell-based; details: normal cell line BALB/3T3, 72 h, mean ± SD
Description: as §1, §2, §3, §4, §5, §6, §7, §8, §9

[5] = system: tubulin; set-up: method as in PMID 2708333; details: lower affinity relative to colchicine; cited from earlier work

SMILES	SI (MCF-7) [1]	SI (LoVo) [2]	SI (A549) [3]	IC50 ([4]; Mus musculus) [nM]	IC50 ([1]; Homo sapiens, MCF7, 72 h) [nM]	IC50 ([2]; Homo sapiens) [nM]	IC50 ([3]; Homo sapiens) [nM]	other results
COc1cccc2c1C(=O)c1c(O)c3c(c(O)c1C2=O)C[C@@](O)(C(=O)CO)C[C@@H]3O[C@H]1C[C@H](N)[C@H](O)[C@H](C)O1 [doxorubicin, reference compound]	0.26	0.49	0.25	40 ± 30	–	–	–	IC50 ([1]; Homo sapiens, MCF7, MCF-7, 72 h, SRB, mean ± SD): 150 ± 50 nM; IC50 ([2]; Homo sapiens, SRB, mean ± SD): 80 ± 30 nM; IC50 ([3]; Homo sapiens, SRB, mean ± SD): 160 ± 30 nM
COc1cc2c(c(O)c1OC)-c1ccc(SC)c(=O)cc1C(NC(C)=O)CC2 (stereo not drawn) [Compound 3, 1-demethylthiocolchicine]	4.92	–	0.74	610 ± 140	120 ± 50	110 ± 30	820 ± 20	–
COc1cc2c(c(OC(=O)c3ccccc3)c1OC)-c1ccc(SC)c(=O)cc1[C@@H](NC(C)=O)CC2 [Compound 4d, Benzyl Ester of 1-demethylthiocolchicine]	0.58	4.71	0.75	450 ± 230	780 ± 220	100 ± 80	600 ± 310	–
COc1cc2c(c(OC)c1OC)-c1ccc(OC(C)=O)c(=O)cc1[C@@H](NC(C)=O)CC2 [Compound 2a, Acetyl Ester of Colchiceine]	–	–	–	–	–	–	–	melting point: 120 to 122 °C
COc1cc2c(c(OC)c1OC)-c1ccc(=O)c(O)cc1[C@@H](NC(C)=O)CC2 [Compound 1, 10-demethylcolchicine]	0.91	1.71	0.79	10200 ± 960	11200 ± 2520	6000 ± 1880	13000 ± 1790	–
N.N.[Cl][Pt][Cl] [cisplatin, reference compound]	0.95	0.77	0.81	–	–	–	–	IC50 ([1]; MCF-7, 72 h, SRB, mean ± SD): 3050 ± 670 nM; IC50 ([2]; SRB, mean ± SD): 3800 ± 280 nM; IC50 ([3]; SRB, mean ± SD): 3600 ± 250 nM; IC50 [4]: 2910 ± 1830 nM
COC(=O)Oc1c(OC)c(OC)cc2c1-c1ccc(SC)c(=O)cc1C(NC(C)=O)CC2 (stereo not drawn) [Compound 4e, Methyl Carbonate of 1-demethylthiocolchicine]	0.77	1.84	0.87	780 ± 60	1020 ± 100	430 ± 190	900 ± 90	–
COc1cc2c(c(OC(C)=O)c1OC)-c1ccc(SC)c(=O)cc1C(NC(C)=O)CC2 (stereo not drawn) [Compound 4a, Acetyl Ester of 1-demethylthiocolchicine]	–	–	1.36	650 ± 120	100 ± 20	110 ± 20	480 ± 150	–
COc1cc2c(c(OC)c1OC)-c1ccc(=O)c(OC)cc1[C@@H](NC(C)=O)CC2 [isocolchicine]	–	–	–	–	–	–	–	affinity for binding to tubulin, times lower than colchicine [5]: 500 times
CCOC(=O)Oc1c(OC)c(OC)cc2c1-c1ccc(SC)c(=O)cc1[C@@H](NC(C)=O)CC2 [Compound 4f, Ethyl Carbonate of 1-demethylthiocolchicine]	1.09	1.31	1.08	1030 ± 200	950 ± 200	790 ± 160	960 ± 130	–
COc1cc2c(c(OC)c1OC)-c1ccc(OC(=O)C(C)C)c(=O)cc1[C@@H](NC(C)=O)CC2 [Compound 2c, Isobutyryl Ester of Colchiceine]	–	–	–	–	–	–	–	melting point: 123 to 125 °C
CCC(=O)Oc1c(OC)c(OC)cc2c1-c1ccc(SC)c(=O)cc1[C@@H](NC(C)=O)CC2 [Compound 4b, Propionyl Ester of 1-demethylthiocolchicine]	–	–	–	750 ± 100	960 ± 130	–	970 ± 40	–
COc1cc2c(c(OC(=O)C(C)C)c1OC)-c1ccc(SC)c(=O)cc1[C@@H](NC(C)=O)CC2 [Compound 4c, Isobutyryl Ester of 1-demethylthiocolchicine]	0.83	1.27	0.80	710 ± 30	860 ± 100	560 ± 60	890 ± 70	–
